Source: ChEMBL document CHEMBL1153924, “Synthesis and antibacterial activity of 4'',11-di-O-arylalkylcarbamoyl azithromycin derivatives” (2009)
Converted amounts (≈) assume the structure as drawn.

Columns and labels:
Type in all cases: functional
Streptococcus pneumoniae [1] = assay: Antibacterial activity against erythromycin-resistant Streptococcus pneumoniae A22072 expressing mef gene by broth microdilution method
Streptococcus pneumoniae [2] = assay: Antibacterial activity against erythromycin-resistant Streptococcus pneumoniae AB11 expressing erm and mef genes by broth microdilution method
Streptococcus pneumoniae [3] = assay: Antibacterial activity against erythromycin-resistant Streptococcus pneumoniae B1 expressing erm gene by broth microdilution method
Streptococcus pneumoniae [4] = assay: Antibacterial activity against erythromycin-susceptible Streptococcus pneumoniae ATCC 49619 by broth microdilution method

Row | Structure (SMILES) | MIC (Streptococcus pneumoniae [1]) [µg/mL] | MIC (Streptococcus pneumoniae [2]) [µg/mL] | MIC (Streptococcus pneumoniae [3]) [µg/mL] | MIC (Streptococcus pneumoniae [4]) [µg/mL]
1 | CCCCCNC(=O)O[C@@H]1[C@@H](C)N(C)C[C@H](C)C[C@@](C)(O)[C@H](O[C@@H]2O[C@H](C)C[C@H](N(C)C)[C@H]2O)[C@@H](C)[C@H](O[C@H]2C[C@@](C)(OC)[C@@H](OC(=O)NCCc3ccccc3Cl)[C@H](C)O2)[C@@H](C)C(=O)O[C@H](CC)[C@@]1(C)O | 0.5 (≈ 0.479 µM) | 16 (≈ 15.3 µM) | 0.5 (≈ 0.479 µM) | < 0.03
2 | CCCCCNC(=O)O[C@@H]1[C@@H](C)N(C)C[C@H](C)C[C@@](C)(O)[C@H](O[C@@H]2O[C@H](C)C[C@H](N(C)C)[C@H]2O)[C@@H](C)[C@H](O[C@H]2C[C@@](C)(OC)[C@@H](OC(=O)NCc3ccc(OC)cc3)[C@H](C)O2)[C@@H](C)C(=O)O[C@H](CC)[C@@]1(C)O | 1 (≈ 0.975 µM) | 32 (≈ 31.2 µM) | 0.5 (≈ 0.488 µM) | 0.06 (≈ 0.0585 µM)
3 | CC[C@H]1OC(=O)[C@H](C)[C@@H](O[C@H]2C[C@@](C)(OC)[C@@H](OC(=O)NCc3ccc(F)cc3)[C@H](C)O2)[C@H](C)[C@@H](O[C@@H]2O[C@H](C)C[C@H](N(C)C)[C@H]2O)[C@](C)(O)C[C@@H](C)CN(C)[C@H](C)[C@@H](OC(=O)NCCc2ccccc2)[C@]1(C)O | 0.06 (≈ 0.0573 µM) | 32 (≈ 30.6 µM) | 0.25 (≈ 0.239 µM) | < 0.03
4 | CCCCNC(=O)O[C@@H]1[C@@H](C)N(C)C[C@H](C)C[C@@](C)(O)[C@H](O[C@@H]2O[C@H](C)C[C@H](N(C)C)[C@H]2O)[C@@H](C)[C@H](O[C@H]2C[C@@](C)(OC)[C@@H](OC(=O)NCc3ccc(OC)cc3)[C@H](C)O2)[C@@H](C)C(=O)O[C@H](CC)[C@@]1(C)O | 1 (≈ 0.989 µM) | 128 (≈ 127 µM) | 0.5 (≈ 0.494 µM) | 0.06 (≈ 0.0593 µM)
5 | CC[C@H]1OC(=O)[C@H](C)[C@@H](O[C@H]2C[C@@](C)(OC)[C@@H](OC(=O)NCc3ccc(F)cc3)[C@H](C)O2)[C@H](C)[C@@H](O[C@@H]2O[C@H](C)C[C@H](N(C)C)[C@H]2O)[C@](C)(O)C[C@@H](C)CN(C)[C@H](C)[C@@H](OC(=O)NCCc2ccccc2Cl)[C@]1(C)O | 0.12 (≈ 0.111 µM) | 2 (≈ 1.85 µM) | 0.25 (≈ 0.231 µM) | < 0.03
6 | CC[C@H]1OC(=O)[C@H](C)[C@@H](O[C@H]2C[C@@](C)(OC)[C@@H](OC(=O)NCCc3ccc(O)cc3)[C@H](C)O2)[C@H](C)[C@@H](O[C@@H]2O[C@H](C)C[C@H](N(C)C)[C@H]2O)[C@](C)(O)C[C@@H](C)CN(C)[C@H](C)[C@H]2OC(=O)O[C@@]21C | 1 (≈ 1.07 µM) | 4 (≈ 4.26 µM) | 8 (≈ 8.53 µM) | < 0.03
7 | CCCCNC(=O)O[C@@H]1[C@@H](C)N(C)C[C@H](C)C[C@@](C)(O)[C@H](O[C@@H]2O[C@H](C)C[C@H](N(C)C)[C@H]2O)[C@@H](C)[C@H](O[C@H]2C[C@@](C)(OC)[C@@H](OC(=O)NCCc3ccc(O)cc3)[C@H](C)O2)[C@@H](C)C(=O)O[C@H](CC)[C@@]1(C)O | 1 (≈ 0.989 µM) | 128 (≈ 127 µM) | 0.25 (≈ 0.247 µM) | < 0.03
8 | CC[C@H]1OC(=O)[C@H](C)[C@@H](O[C@H]2C[C@@](C)(OC)[C@@H](OC(=O)NCCc3ccccc3Cl)[C@H](C)O2)[C@H](C)[C@@H](O[C@@H]2O[C@H](C)C[C@H](N(C)C)[C@H]2O)[C@](C)(O)C[C@@H](C)CN(C)[C@H](C)[C@H]2OC(=O)O[C@@]21C | 0.25 (≈ 0.261 µM) | 2 (≈ 2.09 µM) | 8 (≈ 8.36 µM) | < 0.03
9 | CC[C@H]1OC(=O)[C@H](C)[C@@H](O[C@H]2C[C@@](C)(OC)[C@@H](OC(=O)NCCc3ccc(O)cc3)[C@H](C)O2)[C@H](C)[C@@H](O[C@@H]2O[C@H](C)C[C@H](N(C)C)[C@H]2O)[C@](C)(O)C[C@@H](C)CN(C)[C@H](C)[C@@H](OC(=O)NCc2ccccc2)[C@]1(C)O | 0.12 (≈ 0.115 µM) | 128 (≈ 122 µM) | 0.25 (≈ 0.239 µM) | < 0.03
10 | CC[C@H]1OC(=O)[C@H](C)[C@@H](O[C@H]2C[C@@](C)(OC)[C@@H](OC(=O)NCc3ccc(OC)cc3)[C@H](C)O2)[C@H](C)[C@@H](O[C@@H]2O[C@H](C)C[C@H](N(C)C)[C@H]2O)[C@](C)(O)C[C@@H](C)CN(C)[C@H](C)[C@H]2OC(=O)O[C@@]21C | 0.25 (≈ 0.266 µM) | 16 (≈ 17.1 µM) | 8 (≈ 8.53 µM) | < 0.03
11 | CC[C@H]1OC(=O)[C@H](C)[C@@H](O[C@H]2C[C@@](C)(OC)[C@@H](OC(=O)NCCc3ccccc3Cl)[C@H](C)O2)[C@H](C)[C@@H](O[C@@H]2O[C@H](C)C[C@H](N(C)C)[C@H]2O)[C@](C)(O)C[C@@H](C)CN(C)[C@H](C)[C@@H](OC(=O)NCCc2ccc(O)cc2)[C@]1(C)O | 0.06 (≈ 0.0549 µM) | 16 (≈ 14.6 µM) | 0.25 (≈ 0.229 µM) | < 0.03
12 | CC[C@H]1OC(=O)[C@H](C)[C@@H](O[C@H]2C[C@@](C)(OC)[C@@H](OC(=O)NCCc3ccccc3Cl)[C@H](C)O2)[C@H](C)[C@@H](O[C@@H]2O[C@H](C)C[C@H](N(C)C)[C@H]2O)[C@](C)(O)C[C@@H](C)CN(C)[C@H](C)[C@@H](OC(=O)NCc2ccc(F)cc2)[C@]1(C)O | 0.25 (≈ 0.231 µM) | 4 (≈ 3.7 µM) | 0.25 (≈ 0.231 µM) | 0.06 (≈ 0.0555 µM)
13 | CC[C@H]1OC(=O)[C@H](C)[C@@H](O[C@H]2C[C@@](C)(OC)[C@@H](OC(=O)NCc3ccc(F)cc3)[C@H](C)O2)[C@H](C)[C@@H](O[C@@H]2O[C@H](C)C[C@H](N(C)C)[C@H]2O)[C@](C)(O)C[C@@H](C)CN(C)[C@H](C)[C@H]2OC(=O)O[C@@]21C | 0.06 (≈ 0.0648 µM) | 4 (≈ 4.32 µM) | 8 (≈ 8.64 µM) | < 0.03
14 | CC[C@H]1OC(=O)[C@H](C)[C@@H](O[C@H]2C[C@@](C)(OC)[C@@H](OC(=O)NCCc3ccc(O)cc3)[C@H](C)O2)[C@H](C)[C@@H](O[C@@H]2O[C@H](C)C[C@H](N(C)C)[C@H]2O)[C@](C)(O)C[C@@H](C)CN(C)[C@H](C)[C@@H](OC(=O)NCCc2ccccc2Cl)[C@]1(C)O | 0.25 (≈ 0.229 µM) | 16 (≈ 14.6 µM) | 0.25 (≈ 0.229 µM) | < 0.03
15 | CC[C@H]1OC(=O)[C@H](C)[C@@H](O[C@H]2C[C@@](C)(OC)[C@@H](OC(=O)NCCc3ccccc3Cl)[C@H](C)O2)[C@H](C)[C@@H](O[C@@H]2O[C@H](C)C[C@H](N(C)C)[C@H]2O)[C@](C)(O)C[C@@H](C)CN(C)[C@H](C)[C@@H](OC(=O)NCc2ccccc2)[C@]1(C)O | 0.25 (≈ 0.235 µM) | 4 (≈ 3.76 µM) | 0.25 (≈ 0.235 µM) | < 0.03
16 | CC[C@H]1OC(=O)[C@H](C)[C@@H](O[C@H]2C[C@@](C)(OC)[C@@H](O)[C@H](C)O2)[C@H](C)[C@@H](O[C@@H]2O[C@H](C)C[C@H](N(C)C)[C@H]2O)[C@](C)(O)C[C@@H](C)CN(C)[C@H](C)[C@@H](O)[C@]1(C)O [AZITHROMYCIN] | 4 (≈ 5.34 µM) | 256 (≈ 342 µM) | 128 (≈ 171 µM) | < 0.03
17 | CC[C@H]1OC(=O)[C@H](C)[C@@H](O[C@H]2C[C@@](C)(OC)[C@@H](O)[C@H](C)O2)[C@H](C)[C@@H](O[C@@H]2O[C@H](C)C[C@H](N(C)C)[C@H]2O)[C@](C)(OC)C[C@@H](C)C(=O)[C@H](C)[C@@H](O)[C@]1(C)O [CLARITHROMYCIN] | 4 (≈ 5.35 µM) | 128 (≈ 171 µM) | 64 (≈ 85.6 µM) | < 0.03
